# Data reported in publication PMC7440915, “Discovery of surrogate agonists for visceral fat Treg cells that modulate metabolic indices in vivo” (eLife, 2020).
# Where no end group is shown, it is not given here.
# Columns and labels:
# vTreg53 (Fat) TCR = experiment: Surface plasmon resonance, pMHC/Fat TCR affinity; format: binding, murine; settings: 25°C; for Kd: Biacore T100, biotinylated pMHC immobilized on SA chip 200 to 600 RU, HBS-P+, equilibrium, representative of 2 experiments
# Method: (§1) Figure 3. Identification of robust vTreg53 TCR agonists. Single-point mutants based on the Fat7 (A) or Fat15 (B) peptides were used to stimulate Fat-TCR transduced Jurkat T cells. Data shown are mean fluorescence intensity for CD69 up-regulation following overnight stimulation with the indicated peptides at 100 µM. (C) Potent SPs based on Fat15. Single-residue mutations from the Fat15 are shown in red. Anchor positions are shown in grey and potential TCR-facing positions are shown in green. A peptide titration of single- and double-point mutants from the Fat15 SP show up to ~4- (D; CD69) or ~8 fold (E; CD25) increase in Emax. (F) Surface plasmon resonance for Fat7, Fat15, Fat1562 and Fat2564 was used to determine the pMHC/Fat TCR affinity. All biotinylated pMHC were purified by SEC and immobilized in a streptavidin-coated SPR sensor chip from 200 up to 600 RU. Data are mean ± SD from n = 2 (A, D, E) or 3 (B) biological replicates from 1 representative of 3 independent experiments. Data shown in (F) is representative of 2 independent experiments. Figure 3—figure supplement 1. In vitro peptide stimulation of the vTreg53 TCR cells. (A) Expression of wild-type Ab MHC in stably transduced K562 cells. (B) Expression of vTreg53 TCR in stably transduced Jurkat T cells (TCRαβ-/-). (C) Fraction of CD25+/CD69+ cells following overnight stimulation with Fat mimotopes at the indicated concentrations. (D) Peptide-A^b - streptavidin PE (pAb -SAPE) titration of vTreg53 transduced Jurkat T cells. Cells were stained with 250 nM of pA^b-SAPE tetramer for 1 hr.
# High Five cells (Tni; Expression Systems) were grown in Insect X-press media (Lonza) or ESF 921 media (Expression Systems) with a final concentration of 10 mg/L of gentamicin sulfate (ThermoFisher) at 27°C at atmospheric CO2. SF9 cells are grown in SF900-III or -II serum-free media (ThermoFisher) with 10% FBS and final concentration 10 mg/L of gentamicin sulfate and 2 mM glutamax at 27°C at atmospheric CO2. P1 or P2 virus was used to infect volumes of 1–3 L of Hi5 cells at ∼2 × 10^6 cells/ml. Supernatant was harvested 2–3 days post-infection and spun down at 8000 rpm for 15 min. The supernatant containing expressed protein was treated to 100 mM Tris pH 8.0, 1 mM NiCl2, and 5 mM CaCl2 to precipitate contaminants. The supernatant and precipitate mixture was spun down at 8000 rpm for 20 min at 4°C to remove precipitate. The supernatant was incubated with Ni-NTA resin (QIAGEN) for >3 hr at room temperature. Ni-NTA beads were collected and washed in a Buchner funnel with 20 mM imidazole in 1 x HBS pH 7.2 and eluted with 200 mM imidazole in 1x HBS pH 7.2. Protein was concentrated in a 10 kDa filter (Millipore, UFC903024) to ~1 mL. When appropriate, protein was biotinylated with BirA ligase, 100 μM biotin, 40 mM Bicine pH 8.3, 10 mM ATP, and 10 mM Magnesium Acetate at 4°C overnight. All proteins were further purified by size-exclusion chromatography using Superdex Increase S200 or S75, as appropriate (GE Healthcare). All proteins for in vivo studies were cleared of endotoxin. Final endotoxin levels were determined using a chromogenic endotoxin quantitation kit (Thermo Fisher) and never greater than 1 Endotoxin Unit/mg of purified protein.
# A GE Biacore T100 was used to measure the KD by equilibrium methods. Approximately 200 resonance units (RU) of human CD45, PD-1 or mouse PD-1 was captured on a SA-chip (GE Healthcare), including a reference channel of an unrelated protein. SPR runs were performed in HBS-P+ (GE Healthcare). All measurements were made with 2-fold serial dilutions using 45–60 s association (at 30 μl/min) followed by >240 s dissociation (30 μl/min) at 25°C. Regeneration was performed using HBS-P+, 2 M MgCl2 or 0.1 M Glycine, pH 3.1 for 15–20 s at 50 μl/min. Measurement of titrations at equilibrium were used to determine the KD using Biacore Analysis Software (GE Healthcare). All measurements were repeated twice.
# [1] = system: vTreg53 TCR (transduced Jurkat T cells); experiment: CD69/CD25 up-regulation on vTreg53 TCR transduced Jurkat T cells with peptide-pulsed K562-A^b cells; format: cell-based, Homo sapiens (cells); murine TCR; settings: for CD25 Emax, fold increase over Fat15: CD25, peptide titration, Figure 3E; for CD69 Emax, fold increase over Fat15: CD69, peptide titration, Figure 3D; for EC50: peptide titration, CD69 (Figure 3D), overnight, mean ± SD from n = 2 biological replicates, 1 representative of 3 experiments
# Method: as §1
# Cell lines were kept in a humidified incubator at 37°C with 5% CO2 unless otherwise denoted. Jurkat T cells (derived from acute T cell leukemia ATCC TIB-152) and K562 cells (ATCC CCL-243) were cultured in RPMI supplemented with 2 mM glutamax (Invitrogen), 10% FBS (Sigma),10 mM HEPES pH 8.0 (ThermoFisher), 1 mM Sodium Pyruvate (Gibco) and 50 U/ml penicillin and streptomycin (ThermoFisher). Validation of T cell lines was performed by staining with known markers pre- and post- transfection or transduction. HEK293T (Lenti-X; Takara Bio USA, #632180) cells (female derived kidney cell line) were grown in DMEM complete media (ThermoFisher) supplemented with 10% FBS, 2 mM L-glutamine, and 50 U/ml of penicillin and streptomycin. Cells were tested for mycoplasma contamination using the MycoAlert Mycoplasma Detection kit (Lonza) and found to be mycoplasma-negative. For peptide assays, Jurkat T cells were rested overnight or for 2–3 hr in fresh RPMI complete. Cells were co-cultured for 16 to 48 hr with surrogate APCs: K562 transduced with A^b. After overnight incubation, cells were washed in MACS buffer and stained with anti-TCR, A^b, CD69 and CD25. EBY100 yeast cells were cultured in sterile filtered standard YPD (Bacto Peptone, glucose and yeast extract). Transformed yeast were grown in SDCAA (yeast nitrogen base, casamino acids -ADE, -URA, -TRP, D-glucose and buffered to pH 4.5 using sodium citrate and citric acid monohydrate) and induced in SGCAA where galactose replaces D-glucose. EBY100 cells are grown at 30°C when cultured in SDCAA, or at 20°C when cultured in SGCAA at atmospheric CO2 in an orbital shaker set to an agitation speed of 250 rpm.
Sequence,Kd (vTreg53 (Fat) TCR),affinity (vTreg53 (Fat) TCR; SPR),koff (vTreg53 (Fat) TCR; SPR),"CD25 Emax, fold increase over Fat15 [1]","CD69 Emax, fold increase over Fat15 [1]",EC50 [1],kon (vTreg53 (Fat) TCR; SPR),"CD69 up-regulation ([1]; overnight stimulation, screen at 100 µM)"
TMYKNLRPWAATG [Fat2564],0.347 µM,highest affinity,slowest koff,8.7 fold,~5 fold,8.9 µM,–,–
LMFKGPHAVQAVG [Fat7],34.7 µM,–,fast kon and koff,–,–,–,fast kon,able to up-regulate CD69 expression
TMYKNPRPMAATG [Fat1562],–,highest affinity,slowest koff,4.1 fold,~ 3 fold,14.3 µM,–,–
